Tested on: pp65#23-specific CD4+ T cells
Assay: Cytokine ELISPOT / ELISA of pp65#23-specific CD4+ T cells
Assay type: cell-based, human

## 221DQYVKVYLESFCEDVPSGKL240 [pp65#23]
IL-10 ELISPOT, IL-17 ELISA (limit of detection 15.0 pg/ml)
  IL-10 and IL-17 secretion: no IL-10 or IL-17 was detected
antigen-specific, T2/DP4 pulsed with peptide, Figure 3B
  IFN-γ and IL-4 secretion (ELISPOT): predominantly secreted IFN-γ and much less IL-4
Upon stimulation, Figure 3B
  IL-2 production (ELISPOT): produced IL-2

From publication PMC3156899 (Clinical cancer research : an official journal of the …, 2011)
